A short description of data set [1]: Physical stability of peptide analogues (Thioflavin T fibrillation). In kind it is physicochemical. To be noted: maximum ThT signal normalized between hAMY maximum and buffer background; 40° C., shaking, four days; pH 7 per table title. In short, it runs like this: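 Maximum ThT emission at 480 nm, after LOESS smoothing, is given as percent of the span from buffer background to hAMY. Conditions: 50 mM buffer at pH 4 or 7, 4 μM dye, 40 °C, repeated shaking, readings every 10 min for four days.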

Another data set has as its target hAM1 receptor (Homo sapiens, UniProt O60895+Q16602). Briefly: cAMP assay for in vitro receptor activation, hAM1-R. Format: cell-based. To be noted: cAMP assay, hAM1 receptor; read-out: hAM1R EC50. In short, it runs like this:
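Monoclonal stable hAM1-overexpressing cells, thawed from frozen stock; 8000 cells/well in DPBS + 0.05% casein + 0.5 mM IBMX; read-out cAMP.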
Background: Changes in cAMP serve as a functional read-out for many G protein-coupled receptors.

The target in the next data set is T1, hAMY3 receptor (Homo sapiens, UniProt O60896+P30988).
T1 sequence (P30988 25-474): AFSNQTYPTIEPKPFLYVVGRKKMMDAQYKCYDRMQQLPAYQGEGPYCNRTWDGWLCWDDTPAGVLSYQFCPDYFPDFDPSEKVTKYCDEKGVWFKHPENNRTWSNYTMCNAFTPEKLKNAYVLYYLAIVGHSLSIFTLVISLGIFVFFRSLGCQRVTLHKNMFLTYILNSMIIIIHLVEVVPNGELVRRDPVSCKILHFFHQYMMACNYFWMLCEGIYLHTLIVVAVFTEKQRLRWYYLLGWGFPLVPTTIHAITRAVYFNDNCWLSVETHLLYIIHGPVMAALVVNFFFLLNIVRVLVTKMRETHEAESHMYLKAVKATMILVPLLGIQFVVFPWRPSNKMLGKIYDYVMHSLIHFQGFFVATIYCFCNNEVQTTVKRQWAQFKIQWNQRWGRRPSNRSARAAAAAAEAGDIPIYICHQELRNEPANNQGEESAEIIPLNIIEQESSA
T1 sequence (O60896 24-148 partner): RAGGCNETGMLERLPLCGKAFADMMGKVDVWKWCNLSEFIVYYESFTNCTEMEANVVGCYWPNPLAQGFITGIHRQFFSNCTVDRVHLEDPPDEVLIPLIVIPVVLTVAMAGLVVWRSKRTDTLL
The data set is described as follows: cAMP assay for in vitro receptor activation, hAMY3-R. In kind it is cell-based. To be noted: cAMP assay, hAMY3 receptor; read-out: hAMY3R EC50. In short, it runs like this:
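Graded compound concentrations were applied for 30 min at room temperature to stably hAMY3-expressing cells in DPBS, 0.05% casein, 0.5 mM IBMX; cAMP detected by TR-FRET.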

The structures appear in SMILES notation. Bridge positions count the residues as written; N and C are the ends. Square brackets hold non-standard residues; d marks the D form. Peptide text beside a SMILES is read from it. Hyp = O=C(O)[C@@H]1C[C@@H](O)CN1 A value given as a limit tells only on which side of the number the result lay.

Sequence of hAM1 receptor (Q16602 23-461): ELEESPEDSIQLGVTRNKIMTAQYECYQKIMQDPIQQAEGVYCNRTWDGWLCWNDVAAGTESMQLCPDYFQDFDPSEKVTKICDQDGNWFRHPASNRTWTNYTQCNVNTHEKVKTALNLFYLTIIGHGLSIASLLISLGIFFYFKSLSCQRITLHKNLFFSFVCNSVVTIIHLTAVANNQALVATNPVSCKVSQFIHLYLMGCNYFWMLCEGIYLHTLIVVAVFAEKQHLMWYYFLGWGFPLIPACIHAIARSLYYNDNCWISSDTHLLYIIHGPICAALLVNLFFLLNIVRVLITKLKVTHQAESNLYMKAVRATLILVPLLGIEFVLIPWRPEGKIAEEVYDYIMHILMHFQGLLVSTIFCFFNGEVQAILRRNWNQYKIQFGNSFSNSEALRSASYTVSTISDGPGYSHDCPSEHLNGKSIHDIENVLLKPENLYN
Sequence of hAM1 receptor (O60895 43-175 partner): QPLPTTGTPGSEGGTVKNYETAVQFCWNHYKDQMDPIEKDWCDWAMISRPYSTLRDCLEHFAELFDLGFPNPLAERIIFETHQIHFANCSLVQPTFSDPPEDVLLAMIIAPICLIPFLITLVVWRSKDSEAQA

For orientation: EC50 means the midpoint of the concentration-response curve. With `CC[C@H](C)[C@H](NC(=O)[C@H](CCC(N)=O)NC(=O)[C@H](Cc1c[nH]cn1)NC(=O)[C@H](C)NC(=O)[C@H](CC(C)C)NC(=O)[C@H](CCCNC(=N)N)NC(=O)[C@H](CCC(N)=O)NC(=O)[C@@H](NC(=O)[C@@H](NC(=O)[C@@H]1CSSC[C@H](NC(=O)[C@@H](N)CCCCN)C(=O)N[C@@H](CC(N)=O)C(=O)N[C@@H]([C@@H](C)O)C(=O)N[C@@H](C)C(=O)N[C@@H]([C@@H](C)O)C(=O)N1)[C@@H](C)O)C(C)C)C(=O)N[C@@H](Cc1ccc(O)cc1)C(=O)N[C@@H](CCC(N)=O)C(=O)N[C@@H](Cc1ccccc1)C(=O)N[C@H](C(=O)N[C@@H](CC(=O)O)C(=O)N[C@@H](CCCCN)C(=O)N[C@@H](CC(=O)O)C(=O)N[C@@H](C)C(=O)N[C@@H](CC(=O)O)C(=O)N[C@@H](CC(N)=O)C(=O)N[C@H](C(=O)N[C@@H](C)C(=O)N1CCC[C@H]1C(=O)N1CCC[C@H]1C(=O)N[C@H](C(=O)N[C@@H](CC(N)=O)C(=O)N[C@H](C(=O)NCC(=O)N[C@@H](CO)C(=O)N[C@@H](CC(N)=O)C(=O)NCC(=O)N1C[C@H](O)C[C@H]1C(N)=O)C(C)C)[C@@H](C)O)C(C)C)[C@@H](C)O` [compound 25] (H-KCNTATCTVQRLAHQIYQFTDKDADNVAPPTNVGSNG[Hyp]-NH2; disulfide 2-7; N-terminus assumed), in data set [1], the “Max ThT signal (%)” value is recorded as 33.400%. Also, the EC50 on hAM1 receptor was > 5000 nM; at hAMY3 receptor, 0.008 nM.

As to `CC[C@H](C)[C@H](NC(=O)[C@H](CCC(N)=O)NC(=O)[C@H](Cc1c[nH]cn1)NC(=O)[C@H](C)NC(=O)[C@H](CC(C)C)NC(=O)[C@H](CCCNC(=N)N)NC(=O)[C@H](CCC(N)=O)NC(=O)[C@@H](NC(=O)[C@@H](NC(=O)[C@@H]1CSSC[C@H](NC(=O)[C@@H](N)CCCCN)C(=O)N[C@@H](CC(N)=O)C(=O)N[C@@H]([C@@H](C)O)C(=O)N[C@@H](C)C(=O)N[C@@H]([C@@H](C)O)C(=O)N1)[C@@H](C)O)C(C)C)C(=O)N[C@@H](Cc1ccc(O)cc1)C(=O)N[C@@H](CCC(N)=O)C(=O)N[C@@H](Cc1ccccc1)C(=O)N[C@H](C(=O)N[C@@H](CC(=O)O)C(=O)N[C@@H](CCCCN)C(=O)N[C@@H](CC(=O)O)C(=O)N[C@@H](CCCCN)C(=O)N[C@@H](C)C(=O)N[C@@H](CC(N)=O)C(=O)N[C@H](C(=O)N[C@@H](C)C(=O)N1CCC[C@H]1C(=O)N1CCC[C@H]1C(=O)N[C@H](C(=O)N[C@@H](CC(N)=O)C(=O)N[C@H](C(=O)NCC(=O)N[C@@H](CO)C(=O)N[C@@H](CC(N)=O)C(=O)NCC(=O)N1C[C@H](O)C[C@H]1C(N)=O)C(C)C)[C@@H](C)O)C(C)C)[C@@H](C)O` [compound 26] (H-KCNTATCTVQRLAHQIYQFTDKDKANVAPPTNVGSNG[Hyp]-NH2; disulfide 2-7; N-terminus assumed), the “Max ThT signal (%)” value in data set [1] turned out to be 0.000%. For the same molecule, the EC50 at hAM1 receptor is > 5000 nM; at hAMY3 receptor, 0.008 nM.

For the molecule `CC[C@H](C)[C@H](NC(=O)[C@H](CCC(N)=O)NC(=O)[C@H](Cc1c[nH]cn1)NC(=O)[C@H](C)NC(=O)[C@H](CC(C)C)NC(=O)[C@H](CCCNC(=N)N)NC(=O)[C@H](CCC(N)=O)NC(=O)[C@@H](NC(=O)[C@@H](NC(=O)[C@@H]1CSSC[C@H](NC(=O)[C@@H](N)CCCCN)C(=O)N[C@@H](CC(N)=O)C(=O)N[C@@H]([C@@H](C)O)C(=O)N[C@@H](C)C(=O)N[C@@H]([C@@H](C)O)C(=O)N1)[C@@H](C)O)C(C)C)C(=O)N[C@@H](Cc1ccc(O)cc1)C(=O)N[C@@H](CCC(N)=O)C(=O)N[C@@H](Cc1ccccc1)C(=O)N[C@H](C(=O)N[C@@H](CC(=O)O)C(=O)N[C@@H](CCCCN)C(=O)N[C@@H](CC(=O)O)C(=O)N[C@@H](CCCCN)C(=O)N[C@@H](CC(=O)O)C(=O)N[C@@H](CC(N)=O)C(=O)N[C@@H](C)C(=O)N[C@@H](C)C(=O)N1CCC[C@H]1C(=O)N1CCC[C@H]1C(=O)N[C@H](C(=O)N[C@@H](CC(N)=O)C(=O)N[C@H](C(=O)NCC(=O)N[C@@H](CO)C(=O)N[C@@H](CC(N)=O)C(=O)NCC(=O)N1C[C@H](O)C[C@H]1C(N)=O)C(C)C)[C@@H](C)O)[C@@H](C)O` [compound 27] (H-KCNTATCTVQRLAHQIYQFTDKDKDNAAPPTNVGSNG[Hyp]-NH2; disulfide 2-7; N-terminus assumed), the “Max ThT signal (%)” value in data set [1] was found to be 21.80%. Also, the values for the EC50 at hAM1 receptor and on hAMY3 receptor were > 5000 nM and 0.008 nM, respectively.

As to `CC[C@H](C)[C@H](NC(=O)[C@H](CCC(N)=O)NC(=O)[C@H](Cc1c[nH]cn1)NC(=O)[C@H](C)NC(=O)[C@H](CC(C)C)NC(=O)[C@H](CCCNC(=N)N)NC(=O)[C@H](CCC(N)=O)NC(=O)[C@@H](NC(=O)[C@@H](NC(=O)[C@@H]1CSSC[C@H](NC(=O)[C@@H](N)CCCCN)C(=O)N[C@@H](CC(N)=O)C(=O)N[C@@H]([C@@H](C)O)C(=O)N[C@@H](C)C(=O)N[C@@H]([C@@H](C)O)C(=O)N1)[C@@H](C)O)C(C)C)C(=O)N[C@@H](Cc1ccc(O)cc1)C(=O)N[C@@H](CCC(N)=O)C(=O)N[C@@H](Cc1ccccc1)C(=O)N[C@H](C(=O)N[C@@H](CC(=O)O)C(=O)N[C@@H](CCCCN)C(=O)N[C@@H](CC(=O)O)C(=O)N[C@@H](CCCCN)C(=O)N[C@@H](CC(=O)O)C(=O)N[C@@H](CC(N)=O)C(=O)N[C@H](C(=O)N[C@@H](C)C(=O)N1CCC[C@H]1C(=O)N[C@@H](C)C(=O)N[C@H](C(=O)N[C@@H](CC(N)=O)C(=O)N[C@H](C(=O)NCC(=O)N[C@@H](CO)C(=O)N[C@@H](CC(N)=O)C(=O)NCC(=O)N1C[C@H](O)C[C@H]1C(N)=O)C(C)C)[C@@H](C)O)C(C)C)[C@@H](C)O` [compound 28] (H-KCNTATCTVQRLAHQIYQFTDKDKDNVAPATNVGSNG[Hyp]-NH2; disulfide 2-7; N-terminus assumed), in data set [1], the “Max ThT signal (%)” value was determined as 8.200%. The EC50 was > 5000 nM on hAM1 receptor and 0.008 nM at hAMY3 receptor.

For the molecule `CC[C@H](C)[C@H](NC(=O)[C@H](CCC(N)=O)NC(=O)[C@H](CCC(=O)O)NC(=O)[C@H](C)NC(=O)[C@H](CC(C)C)NC(=O)[C@H](CCCNC(=N)N)NC(=O)[C@H](C)NC(=O)[C@@H](NC(=O)[C@@H](NC(=O)[C@@H]1CSSC[C@H](NC(=O)[C@@H](N)CCCNC(=N)N)C(=O)N[C@@H](CCC(N)=O)C(=O)N[C@@H]([C@@H](C)O)C(=O)N[C@@H](CO)C(=O)N[C@@H]([C@@H](C)O)C(=O)N1)[C@@H](C)O)C(C)C)C(=O)N[C@@H](C)C(=O)N[C@@H](CCC(N)=O)C(=O)N[C@@H](Cc1ccc(O)cc1)C(=O)N[C@H](C(=O)N[C@@H](CC(=O)O)C(=O)N[C@@H](CCCCN)C(=O)N[C@@H](CC(=O)O)C(=O)N[C@@H](CCCCN)C(=O)N[C@@H](CC(=O)O)C(=O)N[C@@H](CCC(N)=O)C(=O)N[C@H](C(=O)N[C@@H](C)C(=O)N1CCC[C@H]1C(=O)N1CCC[C@H]1C(=O)N[C@H](C(=O)N[C@@H](CC(N)=O)C(=O)N[C@H](C(=O)NCC(=O)N[C@@H](CO)C(=O)N[C@@H](CC(N)=O)C(=O)N[C@@H](CO)C(=O)N1C[C@H](O)C[C@H]1C(N)=O)C(C)C)[C@@H](C)O)C(C)C)[C@@H](C)O` [compound 32] (H-RCQTSTCTVARLAEQIAQYTDKDKDQVAPPTNVGSNS[Hyp]-NH2; disulfide 2-7; N-terminus assumed), in data set [1], the “Max ThT signal (%)” value came to 5.300%. Further, the EC50 was > 5000 nM at hAM1 receptor and 0.008 nM at hAMY3 receptor.

For the molecule `CC[C@H](C)[C@H](NC(=O)[C@H](CCC(N)=O)NC(=O)[C@H](Cc1c[nH]cn1)NC(=O)[C@H](C)NC(=O)[C@H](CC(C)C)NC(=O)[C@H](CCCNC(=N)N)NC(=O)[C@H](CCC(N)=O)NC(=O)[C@@H](NC(=O)[C@@H](NC(=O)[C@@H]1CSSC[C@H](NC(=O)[C@@H](N)CCCCN)C(=O)N[C@@H](CC(N)=O)C(=O)N[C@@H]([C@@H](C)O)C(=O)N[C@@H](C)C(=O)N[C@@H]([C@@H](C)O)C(=O)N1)[C@@H](C)O)C(C)C)C(=O)N[C@@H](Cc1ccc(O)cc1)C(=O)N[C@@H](C)C(=O)N[C@@H](Cc1ccccc1)C(=O)N[C@H](C(=O)N[C@@H](CC(=O)O)C(=O)N[C@@H](CCCCN)C(=O)N[C@@H](CC(=O)O)C(=O)N[C@@H](CCCCN)C(=O)N[C@@H](CC(=O)O)C(=O)N[C@@H](CC(N)=O)C(=O)N[C@H](C(=O)N[C@@H](C)C(=O)N1CCC[C@H]1C(=O)N1CCC[C@H]1C(=O)N[C@H](C(=O)N[C@@H](CC(N)=O)C(=O)N[C@H](C(=O)NCC(=O)N[C@@H](CO)C(=O)N[C@@H](CC(N)=O)C(=O)NCC(=O)N1C[C@H](O)C[C@H]1C(N)=O)C(C)C)[C@@H](C)O)C(C)C)[C@@H](C)O` [compound 42] (H-KCNTATCTVQRLAHQIYAFTDKDKDNVAPPTNVGSNG[Hyp]-NH2; disulfide 2-7; N-terminus assumed), the “Max ThT signal (%)” value in data set [1] is 6.300%. The figures for the EC50 on hAM1 receptor and at hAMY3 receptor were > 5000 nM and 0.01 nM, respectively.

Source of the values: US12139520B2 (priority 2020, dated 2024).
